# Source: patent US8937038B2, “Composition containing peptide ligand that bonds with CXCR2 for treating infective and inflammatory diseases” (priority 2010, dated 2015)
# Experiments:
# [1] = test system: bacteria in peritoneal fluids of CLP mice; assay: In vivo disinfection activity: bacterial colonies in peritoneal fluid after CLP; design: species or system mouse; reference not given here; conditions: 24 hours after the CLP; FIG. 10
# Description: A peritoneal lavage fluid was collected 24 hours after CLP, and incubated at 37° C. overnight in a blood agar base plate (trypticase soy agar Deeps, Becton Dickinson). The number of colony forming units (CFUs) was counted according to a method disclosed in Yan J J et al. 2004 Nat. Med. 10:161-167.
# A death rate by CLP is correlated with the number of bacterial colonies in a peritoneal fluid. Therefore, an effect of the Ac-PGP on removal of bacteria in a peritoneal fluid was examined. […] In vitro disinfection activity of the Ac-PGP was examined using neutrophils derived from a mouse. The mouse neutrophils were kept for an hour to phagocytize E. coli, and then stimulated with various concentrations of Ac-PGP (0.1 to 100 nM) for 20 minutes. […] A reactive oxygen species such as hydrogen peroxide was known as an important molecule participating in the disinfection activity. Therefore, an effect of Ac-PGP on production of hydrogen peroxide in the mouse neutrophils was examined. […] To examine a role of CXCR2 in production of hydrogen peroxide by the Ac-PGP, the mouse neutrophils were pretreated with a CXCR2 antagonist (SB225002) before they were treated with the Ac-PGP.
# mouse neutrophils [2] = assay: Disinfection activity of mouse neutrophils phagocytizing E. coli; type: cell-based; conditions: Ac-PGP 0.1 to 100 nM for 20 minutes, FIG. 11
# Description: (§1) Mouse neutrophils were separated from peripheral blood using a Histopaque-1077 solution (Sigma) (Bae Y S et al. 2001 Blood. 97: 2854-2862). The neutrophils separated from normal mice were stimulated with various concentrations of Ac-PGP for 10 minutes in the presence of cytochalasin B (5 μM). To identify the role of mCXCR2, the neutrophils were pre-incubated in various concentrations of SB225002 or a vehicle (DMSO) for 30 minutes in a stationary environment, and Ac-PGP (20 μM) was added, and incubated for 10 minutes. H2O2 in a supernatant was measured using a H2O2 measurement kit (Molecular probe).
# The disinfection activities of the neutrophils were measured according to a method disclosed by Yan et al. (Yan J J et al. 2004 Nat. Med. 10:161-167). The neutrophils were stationarily incubated at 37° C. for an hour on a 13 mm plastic cover slip in a 60 mm plastic culture dish. The non-attached cells were removed by PBS. The attached neutrophils were stationarily incubated for an hour with 10^6 opsonized E. coli cells. The non-phagocytized E. coli cells were washed, and the number of bacteria surviving in the neutrophils was determined before and after the E. coli cells were treated with various concentrations of Ac-PGP or vehicle for an hour. A percentage of the apoptosized bacteria was calculated as follows. […]
# mouse neutrophils [3] = assay: H2O2 production in mouse neutrophils; type: cell-based; conditions: various concentrations, 10 minutes, cytochalasin B 5 μM; FIG. 12
# Description: as §1
# A death rate by CLP is correlated with the number of bacterial colonies in a peritoneal fluid. Therefore, an effect of the Ac-PGP on removal of bacteria in a peritoneal fluid was examined. […] In vitro disinfection activity of the Ac-PGP was examined using neutrophils derived from a mouse. The mouse neutrophils were kept for an hour to phagocytize E. coli, and then stimulated with various concentrations of Ac-PGP (0.1 to 100 nM) for 20 minutes. […] A reactive oxygen species such as hydrogen peroxide was known as an important molecule participating in the disinfection activity. Therefore, an effect of Ac-PGP on production of hydrogen peroxide in the mouse neutrophils was examined. […]
substance,measurement,setting,value
acetylated-Pro-Gly-Pro [Ac-PGP],number of bacterial colonies in the peritoneal fluid,[1],82.1%
same,disinfection activity,mouse neutrophils [2],highly increased the disinfection activity in a dose-dependent manner
same,production of hydrogen peroxide,mouse neutrophils [3],strongly increased production of hydrogen peroxide in a concentration-dependent manner
